From patent US9957251B2 (Takeda Pharmaceutical Company Limited, priority 2014, dated 2018)

Columns and labels:
CDK8/CycC = biological target: T1, CDK8/CycC (Homo sapiens, UniProt P49336); assay: CDK8 inhibitory activity (TR-FRET, Kinase Tracer-236 displacement); assay type: binding; details: 1 μM of the test compound; for inhibition at 1 µM: read-out: Percent inhibition of CDK8 activity (%)
T1 construct: purchased Carna Biosciences
Description: (§1) The compound of the present invention was evaluated for its CDK8 inhibitory activity and CDK19 inhibitory activity by the following method. […] The primary diluted solution was dispensed in the amount of 2 μL/well to a 384-well plate, and then, a mixed solution of Eu^3+ Cryptate conjugated mouse monoclonal antibody anti-glutathione S-transferase (Cisbio) diluted 267-fold with an assay buffer and 60 nM Kinase Tracer-236 (Life technologies) was added thereto at 2 μL/well. After the addition, each kinase solution (84 ng/mL CDK8/CycC (Carna Biosciences) diluted with an assay buffer used for CDK8 inhibitory activity measurement, and 87 ng/mL CDC2L6/CycC (Carna Biosciences) diluted with an assay buffer used for CDK19 inhibitory activity measurement) was further added thereto at 2 μL/well. After the addition, the plate was left standing at room temperature for 1 hour, and then, the fluorescence intensity (excitation wavelength 320 nm, fluorescence wavelength 615 nm, 665 nm, delay time 50 μsec) was measured using an EnVision plate reader (PerkinElmer).

[1] = system: human multiple myeloma RPMI8226 cells; assay: Inhibitory activity against human multiple myeloma RPMI8226 cell growth (CellTiter-Glo); assay type: cell-based; details: 1 μM of the test compound, cultured for 8 days; for inhibition at 1 µM: Homo sapiens, RPMI-8226, 192 h, read-out: Percent inhibition of RPMI8226 cell growth (%)
Description: The compound of the present invention was evaluated for its inhibitory activity against human multiple myeloma RPMI8226 cell growth by the following method.
A suspension of human multiple myeloma RPMI8226 cells (purchased from the Health Protection Agency) was inoculated at 40 μL (300 cells/well) to a 384-well plate and cultured at 37° C. for 1 day in a 5% CO2 incubator. After the culture, each test compound solution was added thereto at a test concentration of 1 μM using TECAN D300, and the cells were further cultured for 8 days. After the culture, CellTiter-Glo™ Luminescent Cell Viability Assay reagent (Promega) was added at 40 μL/well to a 384-well plate, and the amount of luminescence was measured using a luminometer. Inhibitory activity against human multiple myeloma RPMI8226 cell growth (percent inhibition (%)) of the test compound was calculated according to the following formula, which is based on the hypothesis that the amount of residual ATP reflects the number of cells. In this formula, 100% control represents the amount of luminescence from a well with only 0.1% DMSO added. Percent inhibition (%)=(1−(amount of luminescence of the test compound)÷(100% control))×100

CDK19 (CDC2L6/CycC) = biological target: T2, CDK19 (CDC2L6/CycC) (Homo sapiens, UniProt Q9BWU1); assay: CDK19 inhibitory activity (TR-FRET, Kinase Tracer-236 displacement); assay type: binding; details: 1 μM of the test compound; for inhibition at 1 µM: read-out: Percent inhibition of CDK19 activity (%)
T2 construct: purchased Carna Biosciences
Description: as §1

T1 sequence (P49336 whole entry): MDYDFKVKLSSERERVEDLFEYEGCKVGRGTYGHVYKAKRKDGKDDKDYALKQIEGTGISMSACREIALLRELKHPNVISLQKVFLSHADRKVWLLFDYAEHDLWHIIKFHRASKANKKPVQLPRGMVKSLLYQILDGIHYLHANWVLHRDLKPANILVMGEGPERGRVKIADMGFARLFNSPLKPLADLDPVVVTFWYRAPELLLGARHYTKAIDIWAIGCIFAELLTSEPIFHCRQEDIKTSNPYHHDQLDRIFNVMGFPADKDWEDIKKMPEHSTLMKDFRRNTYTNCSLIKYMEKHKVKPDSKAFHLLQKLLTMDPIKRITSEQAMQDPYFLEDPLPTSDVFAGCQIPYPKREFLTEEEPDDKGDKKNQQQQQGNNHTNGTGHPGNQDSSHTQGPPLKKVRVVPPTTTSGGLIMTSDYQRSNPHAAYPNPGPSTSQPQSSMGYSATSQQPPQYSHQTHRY
T1 sequence (P24863 whole entry partner): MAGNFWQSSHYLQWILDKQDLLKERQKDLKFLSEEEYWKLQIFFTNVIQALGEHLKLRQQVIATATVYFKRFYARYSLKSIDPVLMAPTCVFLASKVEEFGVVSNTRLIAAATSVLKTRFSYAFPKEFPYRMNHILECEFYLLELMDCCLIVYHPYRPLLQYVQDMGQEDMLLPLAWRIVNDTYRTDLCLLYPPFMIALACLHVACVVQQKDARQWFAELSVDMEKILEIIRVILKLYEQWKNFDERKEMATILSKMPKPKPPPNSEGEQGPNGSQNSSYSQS
T2 sequence (Q9BWU1 whole entry): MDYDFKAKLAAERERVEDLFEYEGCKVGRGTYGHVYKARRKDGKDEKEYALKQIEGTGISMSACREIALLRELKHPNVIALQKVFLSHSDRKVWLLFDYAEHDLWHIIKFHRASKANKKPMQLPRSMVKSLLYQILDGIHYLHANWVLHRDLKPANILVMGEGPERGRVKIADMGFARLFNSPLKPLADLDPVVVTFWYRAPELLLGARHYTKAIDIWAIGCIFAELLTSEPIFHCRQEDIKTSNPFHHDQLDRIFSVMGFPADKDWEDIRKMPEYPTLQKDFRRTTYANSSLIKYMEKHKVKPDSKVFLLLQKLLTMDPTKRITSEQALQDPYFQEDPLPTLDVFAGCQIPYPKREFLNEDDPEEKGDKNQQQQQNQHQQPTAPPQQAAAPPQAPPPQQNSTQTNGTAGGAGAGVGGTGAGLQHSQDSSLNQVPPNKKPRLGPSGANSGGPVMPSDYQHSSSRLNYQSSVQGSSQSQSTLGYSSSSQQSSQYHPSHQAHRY
T2 sequence (P24863 whole entry partner): as the sequence (P24863 whole entry partner) above

Compound | inhibition at 1 µM (CDK8/CycC) | inhibition at 1 µM [1] | inhibition at 1 µM (CDK19 (CDC2L6/CycC)) | Percent inhibition of CDK8 activity (%) (CDK8/CycC; methanesulfonate, 1 µM) | Percent inhibition of RPMI8226 cell growth (%) ([1]; methanesulfonate, 1 µM) | Percent inhibition of CDK19 activity (%) (CDK19 (CDC2L6/CycC); methanesulfonate, 1 µM)
Cn1cc(-c2ccncc2/C=C/C(=O)Nc2ccc(Cn3cccn3)cc2)cn1 [Example 274, (2E)-3-(4-(1-methyl-1H-pyrazol-4-yl)pyridin-3-yl)-N-(4-(1H-pyrazol-1-ylmethyl)phenyl)acrylamide] | 102% | 53% | 97% | – | – | –
O=C(/C=C/c1cnccc1-c1cnn(C2CC2)c1)Nc1ccc(CN2CC(F)(F)C2)cc1F [Example 370, (2E)-3-(4-(1-cyclopropyl-1H-pyrazol-4-yl)pyridin-3-yl)-N-(4-((3,3-difluoroazetidin-1-yl)methyl)-2-fluorophenyl)acrylamide] | 105% | 51% | 74% | – | – | –
Cn1cnc2ccc(-c3c(F)cncc3/C=C/C(=O)Nc3ccc(CN4CC(F)(F)C4)cc3)cc21 [Example 358, (2E)-N-(4-((3,3-Difluoroazetidin-1-yl)methyl)phenyl)-3-(5-fluoro-4-(1-methyl-1H-benzimidazol-6-yl)pyridin-3-yl)acrylamide] | 87% | 67% | 101% | – | – | –
C[C@@H]1CN(Cc2ccc(NC(=O)/C=C/c3cnccc3-c3cnn(C)c3)cc2)C[C@H](C)O1 [Example 53, (2E)-N-(4-(((2R,65)-2,6-dimethylmorpholin-4-yl)methyl)phenyl)-3-(4-(1-methyl-1H-pyrazol-4-yl)pyridin-3-yl)acrylamide] | 101% | 58% | 97% | – | – | –
COCCn1cnc2ccc(-c3ccncc3/C=C/C(=O)Nc3ccc(CN4CCOCC4)cc3)cc21 [Example 295, (2E)-3-(4-(1-(2-methoxyethyl)-1H-benzimidazol-6-yl)pyridin-3-yl)-N-(4-(morpholin-4-ylmethyl)phenyl)acrylamide] | 103% | 62% | 97% | – | – | –
O=C(/C=C/c1cncc(F)c1-c1cnn(C2CC2)c1)Nc1ccc(CN2CC3CC(C2)O3)cc1 [Example 336, (2E)-3-(4-(1-Cyclopropyl-1H-pyrazol-4-yl)-5-fluoropyridin-3-yl)-N-(4-(6-oxa-3-azabicyclo[3.1.1]hept-3-ylmethyl)phenyl)acrylamide] | 102% | 59% | 101% | – | – | –
O=C(/C=C/c1cnccc1-c1cnn(CC2CC2)c1)Nc1ccc(CCN2CCOCC2)cc1 [Example 108, (2E)-3-(4-(1-(cyclopropylmethyl)-1H-pyrazol-4-yl)pyridin-3-yl)-N-(4-(2-(morpholin-4-yl)ethyl)phenyl)acrylamide] | 94% | 58% | 97% | – | – | –
Cn1cc(-c2ccncc2/C=C/C(=O)Nc2ccc3c(c2)CCN3)cn1 [Example 280, (2E)-N-(2,3-dihydro-1H-indol-5-yl)-3-(4-(1-methyl-1H-pyrazol-4-yl)pyridin-3-yl)acrylamide] | 97% | 58% | 96% | – | – | –
COC(C)(C)Cc1ccc(NC(=O)/C=C/c2cnccc2-c2cnn(C3CC3)c2)cc1 [Example 272, (2E)-3-(4-(1-cyclopropyl-1H-pyrazol-4-yl)pyridin-3-yl)-N-(4-(2-methoxy-2-methylpropyl)phenyl)acrylamide] | 101% | 67% | 94% | – | – | –
Cn1cc(-c2ccncc2/C=C/C(=O)Nc2ccc(N3CC(F)(F)C3)cc2)cn1 [Example 363, (2E)-N-(4-(3,3-difluoroazetidin-1-yl)phenyl)-3-(4-(1-methyl-1H-pyrazol-4-yl)pyridin-3-yl)acrylamide] | 105% | 50% | 99% | – | – | –
Cc1cc(NC(=O)/C=C/c2cnccc2-c2cnn(C3CC3)c2)ccc1CN1CCOCC1 [Example 142, (2E)-3-(4-(1-cyclopropyl-1H-pyrazol-4-yl)pyridin-3-yl)-N-(3-methyl-4-(morpholin-4-ylmethyl)phenyl)acryalmide] | 98% | 62% | 99% | – | – | –
COc1ccc(-c2ccncc2/C=C/C(=O)Nc2ccc(CN3CCOCC3)cc2)s1 [Example 220, (2E)-3-(4-(5-methoxy-2-thienyl)pyridin-3-yl)-N-(4-(morpholin-4-ylmethyl)phenyl)acrylamide] | 93% | 58% | 96% | – | – | –
Cn1cc(-c2ccncc2/C=C/C(=O)Nc2ccc(CN3CC(F)(F)OC(F)(F)C3)cc2)cn1 [Example 58] | 97% | 55% | 98% | – | – | –
CCN1CCc2ccc(NC(=O)/C=C/c3cnccc3-c3cnn(C)c3)cc2C1 [Example 257, (2E)-N-(2-ethyl-1,2,3,4-tetrahydroisoquinolin-7-yl)-3-(4-(1-methyl-1H-pyrazol-4-yl)pyridin-3-yl)acrylamide] | 99% | 56% | 95% | – | – | –
Cn1cc(-c2ccncc2/C=C/C(=O)Nc2ccc3ncsc3c2)cn1 [Example 169, (2E)-N-(1,3-benzothiazol-6-yl)-3-(4-(1-methyl-1H-pyrazol-4-yl)pyridin-3-yl)acrylamide] | 94% | 53% | 90% | – | – | –
O=C(/C=C/c1cnccc1-c1cnn(C2CC2)c1)Nc1ccc(CN2CC(F)(F)C2)cc1 [Example 375, (2E)-3-(4-(1-Cyclopropyl-1H-pyrazol-4-yl)pyridin-3-yl)-N-(4-((3,3-difluoroazetidin-1-yl)methyl)phenyl)acrylamide methanesulfonate] | – | – | – | 102% | 70% | 101%
COC1CN(Cc2ccc(NC(=O)/C=C/c3cnccc3-c3cnn(C4CC4)c3)cc2)C1 [Example 321, (2E)-3-(4-(1-cyclopropyl-1H-pyrazol-4-yl)pyridin-3-yl)-N-(4-((3-methoxyazetidin-1-yl)methyl)phenyl)acrylamide] | 101% | 59% | 99% | – | – | –
Cn1cc(-c2ccncc2/C=C/C(=O)Nc2ccc3c(c2)CCC3=O)cn1 [Example 176, (2E)-3-(4-(1-methyl-1H-pyrazol-4-yl)pyridin-3-yl)-N-(1-oxo-2,3-dihydro-1H-inden-5-yl)acrylamide] | 92% | 54% | 87% | – | – | –
Cc1ncc(-c2ccncc2/C=C/C(=O)Nc2ccc(CN3CCOCC3)cc2)s1 [Example 151, (2E)-3-(4-(2-methyl-1,3-thiazol-5-yl)pyridin-3-yl)-N-(4-(morpholin-4-ylmethyl)phenyl)acrylamide] | 95% | 54% | 95% | – | – | –
Cn1cc(-c2ccncc2/C=C/C(=O)Nc2ccc(CN3CCCC3CO)cc2)cn1 (stereo not drawn) [Example 76, (2E)-N-(4-((2-(hydroxymethyl)pyrrolidin-1-yl)methyl)phenyl)-3-(4-(1-methyl-1H-pyrazol-4-yl)pyridin-3-yl)acrylamide] | 104% | 52% | 93% | – | – | –
Cn1cc(-c2ccncc2/C=C/C(=O)Nc2ccc(CN3CCOCC3)c(F)c2)cn1 [Example 249, (2E)-N-(3-fluoro-4-(morpholin-4-ylmethyl)phenyl)-3-(4-(1-methyl-1H-pyrazol-4-yl)pyridin-3-yl)acrylamide] | 99% | 62% | 97% | – | – | –
COCCOc1ccc(NC(=O)/C=C/c2cnccc2-c2cnn(C)c2)cc1 [Example 253, (2E)-N-(4-(2-methoxyethoxy)phenyl)-3-(4-(1-methyl-1H-pyrazol-4-yl)pyridin-3-yl)acrylamide] | 98% | 62% | 97% | – | – | –
CN1CCc2ccc(NC(=O)/C=C/c3cnccc3-c3cnn(C)c3)cc2C1 [Example 212, (2E)-3(4-(1-methyl-1H-pyrazol-4-yl)pyridin-3-yl)-N-(2-methyl-1,2,3,4-tetrahydroisoquinolin-7-yl)acrylamide] | 100% | 52% | 98% | – | – | –
Cn1cc(-c2ccncc2/C=C/C(=O)Nc2cccc(-c3cccnc3)c2)cn1 [Example 182, (2E)-3-(4-(1-methyl-1H-pyrazol-4-yl)pyridin-3-yl)-N-(3-(pyridin-3-yl)phenyl)acrylamide] | 84% | 58% | 78% | – | – | –
